Measured values as given in article PMC5218480 (PLoS ONE, 2017).

System: MV-4-11 cells
Assay: Gene expression microarray analysis (Affymetrix PrimeView) and GSEA
Format: cell-based, human
Set-up: RFU PODN (11730768_x_at) / Fold change /veh PODN (11730768_x_at) / RFU LINC00158 (11744669_a_at) / Fold change /veh LINC00158 (11744669_a_at) / RFU DUSP10 (11751237_a_at) / Fold change /veh DUSP10 (11751237_a_at) / RFU ID3 (11757404_x_at) / Fold change /veh ID3 (11757404_x_at) / RFU PLEKHG5 (11737974_s_at) / Fold change /veh PLEKHG5 (11737974_s_at) / RFU LRRC4B (11730491_at) / Fold change /veh LRRC4B (11730491_at) / RFU GIMAP4 (11747438_a_at) / Fold change /veh GIMAP4 (11747438_a_at) / RFU KRT8 (11758183_x_at) / Fold change /veh KRT8 (11758183_x_at) / RFU CNN1 (11734310_a_at) / Fold change /veh CNN1 (11734310_a_at) / RFU VPS37D (11726825_at) / Fold change /veh VPS37D (11726825_at) / RFU C10orf10 (11716522_x_at) / Fold change /veh C10orf10 (11716522_x_at) / RFU KIR2DL2 /// KIR2DL4 /// KIR2DL5A /// KIR2DL5B /// KIR2DS1 /// KIR2DS2 /// KIR2DS3 /// KIR2DS4 /// KIR3DL3 /// KIR3DL3 /// KIR3DS1 (11738374_at) / Fold change /veh KIR2DL2 /// KIR2DL4 /// KIR2DL5A /// KIR2DL5B /// KIR2DS1 /// KIR2DS2 /// KIR2DS3 /// KIR2DS4 /// KIR3DL3 /// KIR3DL3 /// KIR3DS1 (11738374_at) / RFU C1QL1 (11718748_at) / Fold change /veh C1QL1 (11718748_at) / RFU TMPRSS4 (11747572_a_at) / Fold change /veh TMPRSS4 (11747572_a_at) / RFU HAMP (11756126_x_at) / Fold change /veh HAMP (11756126_x_at) / RFU RNFT2 (11725882_a_at) / Fold change /veh RNFT2 (11725882_a_at) / RFU NR4A2 (11747474_a_at) / Fold change /veh NR4A2 (11747474_a_at) / RFU ABCC12 (11746883_a_at) / Fold change /veh ABCC12 (11746883_a_at) / RFU TMEM136 (11760407_x_at) / Fold change /veh TMEM136 (11760407_x_at) / RFU CLDN22 /// WWC2 (11732394_at) / Fold change /veh CLDN22 /// WWC2 (11732394_at) / RFU HLA-DPB1 (11760878_x_at) / Fold change /veh HLA-DPB1 (11760878_x_at) / RFU SPINT1 (11716480_a_at) / Fold change /veh SPINT1 (11716480_a_at) / RFU GAP43 (11754022_s_at) / Fold change /veh GAP43 (11754022_s_at) / RFU A4GNT (11735810_at) / Fold change /veh A4GNT (11735810_at) / RFU PRB3 (11715151_x_at) / Fold change /veh PRB3 (11715151_x_at) / RFU TUBB4B (11761932_at) / Fold change /veh TUBB4B (11761932_at) / RFU CAPN14 (11732068_a_at) / Fold change /veh CAPN14 (11732068_a_at) / RFU TMCC2 (11721928_a_at) / Fold change /veh TMCC2 (11721928_a_at) / RFU IRGQ (11745062_a_at) / Fold change /veh IRGQ (11745062_a_at) / RFU FAM174B (11720279_a_at) / Fold change /veh FAM174B (11720279_a_at) / RFU TMPRSS4 (11748680_a_at) / Fold change /veh TMPRSS4 (11748680_a_at) / RFU FAM212B (11763350_a_at) / Fold change /veh FAM212B (11763350_a_at) / RFU PLEKHG5 (11743358_a_at) / Fold change /veh PLEKHG5 (11743358_a_at) / RFU ZSCAN30 (11745921_a_at) / Fold change /veh ZSCAN30 (11745921_a_at) / RFU CMKLR1 (11741424_a_at) / Fold change /veh CMKLR1 (11741424_a_at) / RFU LOC101060620 /// MAPK8IP1 (11723275_at) / Fold change /veh LOC101060620 /// MAPK8IP1 (11723275_at) / RFU SPTSSB (11747773_x_at) / Fold change /veh SPTSSB (11747773_x_at) / RFU PRSS12 (11739890_at) / Fold change /veh PRSS12 (11739890_at) / RFU BIN1 (11741810_x_at) / Fold change /veh BIN1 (11741810_x_at) / RFU WNT11 (11732464_a_at) / Fold change /veh WNT11 (11732464_a_at) / RFU C10orf10 (11716521_a_at) / Fold change /veh C10orf10 (11716521_a_at) / RFU C5orf56 (11738089_at) / Fold change /veh C5orf56 (11738089_at) / RFU CYB561 (11721691_x_at) / Fold change /veh CYB561 (11721691_x_at) / RFU ANKRD19P (11752326_a_at) / Fold change /veh ANKRD19P (11752326_a_at) / RFU OR2T12 /// OR2T33 /// OR2T8 (11738714_s_at) / Fold change /veh OR2T12 /// OR2T33 /// OR2T8 (11738714_s_at) / RFU VCAN (11748164_a_at) / Fold change /veh VCAN (11748164_a_at) / RFU JSRP1 (11732532_at) / Fold change /veh JSRP1 (11732532_at) / RFU KRTAP10-11 (11738290_x_at) / Fold change /veh KRTAP10-11 (11738290_x_at) / RFU MYO3A (11730013_a_at) / Fold change /veh MYO3A (11730013_a_at) / RFU EBF3 (11725865_a_at) / Fold change /veh EBF3 (11725865_a_at) / RFU CAMK2N1 (11719241_x_at) / Fold change /veh CAMK2N1 (11719241_x_at) / RFU C5orf56 (11738088_a_at) / Fold change /veh C5orf56 (11738088_a_at) / RFU OLFML3 (11715873_a_at) / Fold change /veh OLFML3 (11715873_a_at) / RFU LOC100653217 /// NTM (11731650_a_at) / Fold change /veh LOC100653217 /// NTM (11731650_a_at) / RFU MAPK11 (11762145_a_at) / Fold change /veh MAPK11 (11762145_a_at) / RFU FIZ1 (11724087_x_at) / Fold change /veh FIZ1 (11724087_x_at) / RFU OASL (11726364_x_at) / Fold change /veh OASL (11726364_x_at) / RFU SOX15 (11748057_x_at) / Fold change /veh SOX15 (11748057_x_at) / RFU CD79A (11719716_a_at) / Fold change /veh CD79A (11719716_a_at) / RFU HIST1H1D (11736915_at) / Fold change /veh HIST1H1D (11736915_at) / RFU CASKIN2 (11723855_a_at) / Fold change /veh CASKIN2 (11723855_a_at) / RFU LOC730098 (11760151_x_at) / Fold change /veh LOC730098 (11760151_x_at) / RFU OR4N2 (11742367_at) / Fold change /veh OR4N2 (11742367_at) / RFU PRRT2 (11749266_a_at) / Fold change /veh PRRT2 (11749266_a_at) / RFU SNX32 (11753110_a_at) / Fold change /veh SNX32 (11753110_a_at) / RFU CDHR5 (11726645_a_at) / Fold change /veh CDHR5 (11726645_a_at) / RFU RCAN1 (11760418_a_at) / Fold change /veh RCAN1 (11760418_a_at) / RFU FAM167A (11723789_a_at) / Fold change /veh FAM167A (11723789_a_at) / RFU FAM26E (11764081_at) / Fold change /veh FAM26E (11764081_at) / RFU ISYNA1 (11749810_s_at) / Fold change /veh ISYNA1 (11749810_s_at) / RFU ACY1 (11761880_at) / Fold change /veh ACY1 (11761880_at) / RFU 11764098_at / Fold change /veh 11764098_at / RFU SAMD14 (11745864_x_at) / Fold change /veh SAMD14 (11745864_x_at) / RFU NPB (11741838_a_at) / Fold change /veh NPB (11741838_a_at) / RFU TMPRSS6 (11731388_a_at) / Fold change /veh TMPRSS6 (11731388_a_at) / RFU KRTAP10-2 (11738614_at) / Fold change /veh KRTAP10-2 (11738614_at) / RFU ARHGAP8 /// PRR5-ARHGAP8 (11727945_x_at) / Fold change /veh ARHGAP8 /// PRR5-ARHGAP8 (11727945_x_at) / RFU KRTAP5-7 /// NADSYN1 (11734609_at) / Fold change /veh KRTAP5-7 /// NADSYN1 (11734609_at) / RFU RASL12 (11751679_a_at) / Fold change /veh RASL12 (11751679_a_at) / RFU CDKN2B (11736163_a_at) / Fold change /veh CDKN2B (11736163_a_at) / RFU PRF1 (11729649_at) / Fold change /veh PRF1 (11729649_at) / RFU, ZNF638 /// ZNF638-IT1 / Fold change vs veh, ZNF638 /// ZNF638-IT1 / RFU, PANK3 / Fold change vs veh, PANK3 / RFU, SH3YL1 / Fold change vs veh, SH3YL1 / RFU, ZEB2 / Fold change vs veh, ZEB2 / RFU, NRIP1 / Fold change vs veh, NRIP1 / RFU, PTTG1IP / Fold change vs veh, PTTG1IP / RFU, CAPN2 / Fold change vs veh, CAPN2 / RFU, MED14 / Fold change vs veh, MED14 / RFU, SNORA58 / Fold change vs veh, SNORA58 / RFU, C1orf63 / Fold change vs veh, C1orf63 / RFU, LRRFIP1 / Fold change vs veh, LRRFIP1 / RFU, NDUFAF7 / Fold change vs veh, NDUFAF7 / RFU, SLC12A2 / Fold change vs veh, SLC12A2 / RFU, IBTK / Fold change vs veh, IBTK / RFU, ESF1 / Fold change vs veh, ESF1 / Fold change vs veh, TMEM50B / RFU, TAOK1 / Fold change vs veh, TAOK1 / RFU, ACBD3 / Fold change vs veh, ACBD3 / RFU, TMA16 / Fold change vs veh, TMA16 / RFU, RWDD3 / Fold change vs veh, RWDD3 / RFU, BCAT1 / Fold change vs veh, BCAT1 / RFU, EDEM3 / Fold change vs veh, EDEM3 / RFU, TMEM33 / Fold change vs veh, TMEM33 / RFU, WDR75 / Fold change vs veh, WDR75 / RFU, AHCTF1 / Fold change vs veh, AHCTF1 / RFU, TFRC / Fold change vs veh, TFRC / RFU, ZDHHC17 / Fold change vs veh, ZDHHC17 / RFU, NOM1 / Fold change vs veh, NOM1 / RFU, ARL8B / Fold change vs veh, ARL8B / RFU, ZBTB11 / Fold change vs veh, ZBTB11 / RFU, TAMM41 / Fold change vs veh, TAMM41 / RFU, KIAA1704 /// LOC100996395 / Fold change vs veh, KIAA1704 /// LOC100996395 / RFU, ING1 / Fold change vs veh, ING1 / RFU, TRMT61B / Fold change vs veh, TRMT61B / RFU, FUBP3 / Fold change vs veh, FUBP3 / RFU, TP53 / Fold change vs veh, TP53 / RFU, TNKS2 / Fold change vs veh, TNKS2 / RFU, ZFP14 / Fold change vs veh, ZFP14 / RFU, ACTR2 / Fold change vs veh, ACTR2 / RFU, PPP3R1 / Fold change vs veh, PPP3R1 / RFU, PIK3R1 / Fold change vs veh, PIK3R1 / RFU, HNRNPA1 / Fold change vs veh, HNRNPA1 / RFU, RNF170 / Fold change vs veh, RNF170 / RFU, ZNF28 / Fold change vs veh, ZNF28 / RFU, RNGTT / Fold change vs veh, RNGTT / RFU, OGT / Fold change vs veh, OGT / RFU, BRD1 / Fold change vs veh, BRD1 / RFU, MARS / Fold change vs veh, MARS / RFU, ZNF655 / Fold change vs veh, ZNF655 / RFU, FAHD1 / Fold change vs veh, FAHD1 / RFU, BDP1 / Fold change vs veh, BDP1 / RFU, LRRCC1 / Fold change vs veh, LRRCC1 / RFU, ARID1A / Fold change vs veh, ARID1A / RFU, ZNF146 / Fold change vs veh, ZNF146 / RFU, ZNF330 / Fold change vs veh, ZNF330 / RFU, GPN3 / Fold change vs veh, GPN3 / RFU, C9orf123 / Fold change vs veh, C9orf123 / RFU, N4BP2L2 / Fold change vs veh, N4BP2L2 / RFU, ARFIP1 / Fold change vs veh, ARFIP1 / RFU, FAM179B / Fold change vs veh, FAM179B / RFU, BCL10 / Fold change vs veh, BCL10 / RFU, UHRF1BP1L / Fold change vs veh, UHRF1BP1L / RFU, BET1 / Fold change vs veh, BET1 / RFU, CNOT2 / Fold change vs veh, CNOT2 / RFU, ZNF268 / Fold change vs veh, ZNF268 / Fold change vs veh, ZNF507 / RFU, DGCR2 / Fold change vs veh, DGCR2 / RFU, WDSUB1 / Fold change vs veh, WDSUB1 / Fold change vs veh, HSP90B1 /// MIR3652 / RFU, ADSS / Fold change vs veh, ADSS / RFU, GK / Fold change vs veh, GK / RFU, ZNF148 / Fold change vs veh, ZNF148 / RFU, TAF9 / Fold change vs veh, TAF9 / RFU, SLC1A5 / Fold change vs veh, SLC1A5 / RFU, SLMO2 / Fold change vs veh, SLMO2 / RFU, ABCC4 / Fold change vs veh, ABCC4 / RFU, LOC101060439 /// RAP1B / Fold change vs veh, LOC101060439 /// RAP1B / RFU, RFX7 / Fold change vs veh, RFX7 / RFU, GTPBP10 / Fold change vs veh, GTPBP10 / RFU, CNEP1R1 / Fold change vs veh, CNEP1R1 / RFU, BIVM-ERCC5 /// ERCC5 / Fold change vs veh, BIVM-ERCC5 /// ERCC5 / RFU, ILF3 / Fold change vs veh, ILF3 / RFU 11762660_at / Fold change /veh 11762660_at / RFU VCAN (11757783_s_at) / Fold change /veh VCAN (11757783_s_at) / RFU DDX43 (11728927_at) / Fold change /veh DDX43 (11728927_at) / RFU KRT8 (11758188_x_at) / Fold change /veh KRT8 (11758188_x_at) / RFU NKD1 (11759106_at) / Fold change /veh NKD1 (11759106_at) / RFU SRD5A1 (11742802_a_at) / Fold change /veh SRD5A1 (11742802_a_at) / RFU TPSAB1 /// TPSB2 (11721975_s_at) / Fold change /veh TPSAB1 /// TPSB2 (11721975_s_at) / RFU GSTM3 (11746129_a_at) / Fold change /veh GSTM3 (11746129_a_at) / RFU IL23R (11737362_x_at) / Fold change /veh IL23R (11737362_x_at) / RFU TMEM51 (11727254_a_at) / Fold change /veh TMEM51 (11727254_a_at) / RFU PIWIL2 (11732686_x_at) / Fold change /veh PIWIL2 (11732686_x_at) / RFU ORM1 (11744905_x_at) / Fold change /veh ORM1 (11744905_x_at) / RFU CCDC152 (11743942_at) / Fold change /veh CCDC152 (11743942_at) / RFU ECM1 (11717891_a_at) / Fold change /veh ECM1 (11717891_a_at) / RFU IL23R (11748794_a_at) / Fold change /veh IL23R (11748794_a_at) / RFU TNFAIP8L3 (11732012_x_at) / Fold change /veh TNFAIP8L3 (11732012_x_at) / RFU MBOAT4 (11741988_at) / Fold change /veh MBOAT4 (11741988_at) / RFU 11764193_at / Fold change /veh 11764193_at / RFU TMEM53 (11763286_at) / Fold change /veh TMEM53 (11763286_at) / RFU MAGEB2 (11727129_at) / Fold change /veh MAGEB2 (11727129_at) / RFU TMEM200A (11744735_a_at) / Fold change /veh TMEM200A (11744735_a_at) / RFU CCDC152 (11751479_a_at) / Fold change /veh CCDC152 (11751479_a_at) / RFU FAM211A (11726209_a_at) / Fold change /veh FAM211A (11726209_a_at) / RFU RGS16 (11746705_a_at) / Fold change /veh RGS16 (11746705_a_at) / RFU VCAN (11755009_s_at) / Fold change /veh VCAN (11755009_s_at) / RFU RHOB (11743442_s_at) / Fold change /veh RHOB (11743442_s_at) / RFU RGS16 (11720943_a_at) / Fold change /veh RGS16 (11720943_a_at) / RFU RGS16 (11720944_at) / Fold change /veh RGS16 (11720944_at) / RFU, VPS4B / Fold change vs veh, VPS4B / RFU, CREB1 / Fold change vs veh, CREB1 / RFU, DNAJC13 / Fold change vs veh, DNAJC13 / RFU, GNAQ / Fold change vs veh, GNAQ / RFU, CDK5R1 / Fold change vs veh, CDK5R1 / RFU, ZRANB3 / Fold change vs veh, ZRANB3 / RFU, CUL4A / Fold change vs veh, CUL4A / RFU, CCNY / Fold change vs veh, CCNY / RFU, UFL1 / Fold change vs veh, UFL1 / RFU, COG3 / Fold change vs veh, COG3 / RFU, DIAPH2 / Fold change vs veh, DIAPH2 / RFU, SKA2 / Fold change vs veh, SKA2 / RFU, AFF3 / Fold change vs veh, AFF3 / RFU, LMF1 / Fold change vs veh, LMF1 / RFU, IPO11 / Fold change vs veh, IPO11 / RFU, DFFB / Fold change vs veh, DFFB / RFU, FOXP1 / Fold change vs veh, FOXP1 / RFU, CARD8 / Fold change vs veh, CARD8 / RFU, STRN3 / Fold change vs veh, STRN3 / RFU, ADK / Fold change vs veh, ADK / RFU, RASSF2 / Fold change vs veh, RASSF2 / RFU, WIPF1 / Fold change vs veh, WIPF1 / RFU, LARP1B / Fold change vs veh, LARP1B / RFU, RASA1 / Fold change vs veh, RASA1 / RFU, RB1 / Fold change vs veh, RB1 / RFU, PPFIA1 / Fold change vs veh, PPFIA1 / RFU, MAT2A / Fold change vs veh, MAT2A / RFU, CCT5 / Fold change vs veh, CCT5 / RFU, WDR92 / Fold change vs veh, WDR92 / RFU, CUX1 / Fold change vs veh, CUX1 / RFU, TTC7A / Fold change vs veh, TTC7A / RFU, TMEM135 / Fold change vs veh, TMEM135 / RFU, DEPTOR / Fold change vs veh, DEPTOR / RFU, CPM / Fold change vs veh, CPM / RFU, DNAJB6 / Fold change vs veh, DNAJB6 / RFU, CACNA2D3 / Fold change vs veh, CACNA2D3 / RFU, DTX4 / Fold change vs veh, DTX4 / RFU, TFCP2 / Fold change vs veh, TFCP2 / RFU, GMCL1 /// GMCL1P1 / Fold change vs veh, GMCL1 /// GMCL1P1 / RFU, AEBP2 / Fold change vs veh, AEBP2 / RFU, SNHG1 /// SNORD22 /// SNORD25 /// SNORD26 /// SNORD27 /// SNORD28 /// SNORD29 /// SNORD31 / Fold change vs veh, SNHG1 /// SNORD22 /// SNORD25 /// SNORD26 /// SNORD27 /// SNORD28 /// SNORD29 /// SNORD31 / Fold change (Aza/veh), C12orf56 (ProbeSet 11735607_a_at) / Fold change (ACY-1035/veh), C12orf56 (ProbeSet 11735607_a_at) / Fold change (Aza/veh), FGFR1OP (ProbeSet 11751329_s_at) / Fold change (ACY-1035/veh), FGFR1OP (ProbeSet 11751329_s_at) / Fold change (Aza/veh), VPS36 (ProbeSet 11739960_a_at) / Fold change (ACY-1035/veh), VPS36 (ProbeSet 11739960_a_at) / RFU SYPL1 (11715823_x_at) / Fold change /veh SYPL1 (11715823_x_at) / RFU IGFBP7 (11715501_s_at) / Fold change /veh IGFBP7 (11715501_s_at) / RFU REEP3 (11722064_at) / Fold change /veh REEP3 (11722064_at) / RFU IGLL1 (11728026_x_at) / Fold change /veh IGLL1 (11728026_x_at): dose or concentration left out as unconfirmed
Conditions: MV-4-11 cells, 48 hours

Compound: Nc1ccc(-c2cccs2)cc1NC(=O)c1ccc2c(c1)cc(C1CC1)n2CCN1CCOCC1 [ACY-1035]
- RFU NKD1 (11759106_at): 19.24 RFU
